Two compounds from paper PMC4643908 (2015) can be followed below.

The subject of experiment [1] is Tebowned (RNA, riboswitch) GGACGAUUGAGGAUAUUUAGACAUAGAGAAGGCAAUGGAGAGAGAGCUUUUUAAAGAAACAACAACAACAAC
In words: chemical mapping. As to conditions: mapping pattern changes on FMN.

The subject of experiment [2] is V. vulnificus add adenine riboswitch (with expression platform segment) (RNA, riboswitch) GGGAACCGAGUAGGUUCGCUUCAUAUAAUCCUAAUGAUAUGGUUUGGGAGUUUCUACCAAGAGCCUUAAACUCUUGAUUAUGAAGUCUGUCGCUUUAUCCGAAAUUUUAUAAAGAGAAGACUCAUGAAUGGGAUCCGAGUAGGAUCCUGAAAAAAACAACAACAAC
Description: 1M7 SHAPE mutate-and-map chemical mapping. As to conditions: 50 mM KCl, 25 mM K3PO4, 10 mM MgCl2; pH 6.5; room temperature; 5 mM adenine; protections in aptamer.

Turning to `Cc1cc2nc3c(=O)[nH]c(=O)nc-3n(C[C@H](O)[C@H](O)[C@H](O)COP(=O)(O)O)c2cc1C`, the binding result in experiment [1] is recorded as “yes”.

`Nc1ncnc2[nH]cnc12`: in experiment [2], the binding result was “yes”.
